Data: patent publication US10603345B2, “Pharmaceutical composition for treating respiratory disease” (Kunming Institute of Botany, The Chinese Academy of Sciences, priority 2015, dated 2020)

Columns and labels:
Format in all cases: in vivo
[1] = test system: SOD in serum and homogenate of COPD model mouse; assay: Effect on SOD in serum and homogenate of COPD model mouse; details: ig 7 d, dose/kg: dexamethasone 1 mg, Test group 1 50, 2 25, 3 10, picrinine 10, vallesamine 6, scholaricine 7, 19-epi-scholaricine 2 mg, x ± SD
Procedure: (§1) Animal source: 25˜30 g male ICR mouse, from laboratory animal department of Kunming Medical University, License No. SCXK (Dian) 2011-0004.
(§2) Method and route: lipopolysaccharide (LPS) plus smoke exposure was used for 30 days to induce mouse chronic obstructive pulmonary disease model; and after intragastrical administration for 7 d at a dose of 20 mL/kg, the animal was sacrificed at the eighth day.
(§3) Picrinine group (10 mg/kg), Vallesamine group (6.0 mg/kg), Scholaricine group (7.0 mg/kg), 19-epischolaricine group (2.0 mg/kg).
(§4) Sample preparation: all the samples were prepared by using 0.5% carboxymethylcellulose sodium (0.5% CMC-Na).
Group and dose: in Test group 1, the ratio of picrinine, vallesamine, scholaricine and 19-epischolaricine by weight was 16:11:12:3, and the other groups and doses thereof were as described in Example 10.
Test index: SOD in serum and lung homogenate was used as index, and was determined by xanthine oxidase method.

[2] = test system: IgE in serum of asthma model mouse; assay: Effect on IgE in serum of asthma model mouse; details: ELISA, ig 7 d, dose/kg: dexamethasone 2.0 mg, Test group 1 50, 2 25, picrinine 5.0, vallesamine 3.0, scholaricine 3.0, 19-epi-scholaricine 3.5 mg, x ± SD
Procedure: as §1
(§5) Method and route: ovalbumin (OVA) was used to induce mouse asthma model, and after intragastrical administration for 7 d at a dose of 20 mL/kg, the animal was sacrificed at the eighth day.
(§6) Test group 1: picrinine, vallesamine, scholaricine and 19-epischolaricine prepared in Example 1.7 were homogeneously mixed at different ratios by weight (50 mg/kg), Test group 2: the alkaloid composition prepared in Example 1.4 (25 mg/kg). […]
as §4
Group and dose: In Test group 1, the ratio of picrinine, vallesamine, scholaricine and 19-epischolaricine by weight was 30:33:27:6, and the other groups and doses thereof were as described in Example 11.
Test index: immunoglobulin IgE in serum was used as index, and was determined by enzyme linked immunosorbent assay.

[3] = test system: Eotaxin in serum of asthma model mouse; assay: Effect on Eotaxin in serum of asthma model mouse; details: ELISA, ig 7 d, dose/kg: dexamethasone 2.0 mg, Test group 1 50, 2 25, picrinine 5.0, vallesamine 3.0, scholaricine 3.0, 19-epi-scholaricine 3.5 mg, x ± SD
Procedure: as §1, §5, §6, §4
Group and dose: in Test group 1, the ratio of picrinine, vallesamine, scholaricine and 19-epischolaricine by weight was 37:42:30:8, and the other groups and doses thereof were as described in Example 11.
Test index: eosinophil chemotactic factor (Eotaxin) in serum was used as index, and was determined by enzyme linked immunosorbent assay.

[4] = test system: MDA in serum and BALF of asthma model mouse; assay: Effect on MDA in serum and BALF of asthma model mouse; details: ig 7 d, dose/kg: dexamethasone 2.0 mg, Test group 1 50, 2 25, picrinine 5.0, vallesamine 3.0, scholaricine 3.0, 19-epi-scholaricine 3.5 mg, x ± SD
Procedure: as §1, §5, §6, §4
Group and dose: in Test group 1, the ratio of picrinine, vallesamine, scholaricine and 19-epischolaricine by weight was 8:6:5:1, and the other groups and doses thereof were as described in Example 11.
Test index: MDA in serum and BALF was used as index, and was determined by thiobarbituric acid method.

[5] = test system: IL-6 in serum of COPD model mouse; assay: Effect on IL-6 in serum of COPD model mouse; details: ELISA, ig 7 d, dose/kg: dexamethasone 1 mg, Test group 1 50, 2 25, 3 10, picrinine 10, vallesamine 6, scholaricine 7, 19-epi-scholaricine 2 mg, x ± SD
Procedure: as §1, §2, §3, §4
Group and dose: in Test group 1, the ratio of picrinine, vallesamine, scholaricine and 19-epischolaricine by weight was 38:30:27:7, and the other groups and doses thereof were as described in Example 10.
Test index: IL-6 in serum was used as index, and was determined by enzyme linked immunosorbent assay.

[6] = test system: white blood cell count and classification in BALF of COPD model mouse; assay: Effect on white blood cell count and classification in BALF of COPD model mouse; details: COPD mouse (LPS plus smoke exposure 30 days), ig 7 d, dose/kg: dexamethasone 1 mg, Test group 1 50, 2 25, 3 10, picrinine 10, vallesamine 6, scholaricine 7, 19-epi-scholaricine 2 mg, x ± SD
Procedure: as §1, §2, §3, §4
Group and dose: in Test group 1, the ratio of picrinine, vallesamine, scholaricine and 19-epischolaricine by weight was 48:40:29:10, and the other groups and doses thereof were as described in Example 10.
Test index: total number of white blood cells and inflammatory cell classification in bronchoalveolar lavage fluid (BALF) were used as indexes, and were determined by full-automatic hemocytometer.

[7] = test system: IL-4 in BALF of asthma model mouse; assay: Effect on IL-4 in BALF of asthma model mouse; details: ELISA, ig 7 d, dose/kg: dexamethasone 2.0 mg, Test group 1 50, 2 25, picrinine 5.0, vallesamine 3.0, scholaricine 3.0, 19-epi-scholaricine 3.5 mg, x ± SD
Procedure: as §1, §5, §6, §4
Group and dose: in Test group 1, the ratio of picrinine, vallesamine, scholaricine and 19-epischolaricine by weight was 25:18:15:3, and the other groups and doses thereof were as described in Example 11. […]

[8] = test system: IL-10 in BALF of asthma model mouse; assay: Effect on IL-10 in BALF of asthma model mouse; details: ELISA, ig 7 d, dose/kg: dexamethasone 2.0 mg, Test group 1 50, 2 25, picrinine 5.0, vallesamine 3.0, scholaricine 3.0, 19-epi-scholaricine 3.5 mg, x ± SD
Procedure: as §1, §5, §6, §4
Group and dose: in Test group 1, the ratio of picrinine, vallesamine, scholaricine and 19-epischolaricine by weight was 18:13:14:3, and the other groups and doses thereof were as described in Example 11.
Test index: IL-10 in BALF was used as index, and was determined by enzyme linked immunosorbent assay.

[9] = test system: MDA in serum and homogenate of COPD model mouse; assay: Effect on MDA in serum and homogenate of COPD model mouse; details: ig 7 d, dose/kg: dexamethasone 1 mg, Test group 1 50, 2 25, 3 10, picrinine 10, vallesamine 6, scholaricine 7, 19-epi-scholaricine 2 mg, x ± SD
Procedure: as §1, §2, §3, §4
Group and dose: in Test group 1, the ratio of picrinine, vallesamine, scholaricine and 19-epischolaricine by weight was 9:6:5:1, and the other groups and doses thereof were as described in Example 10.
Test index: MDA in serum and homogenate was used as index, and was determined by thibabituric acid method.

[10] = test system: CRP in serum in COPD model mouse; assay: Effect on CRP in serum in COPD model mouse; details: ELISA, ig 7 d, dose/kg: dexamethasone 1 mg, Test group 1 50, 2 25, 3 10, picrinine 10, vallesamine 6, scholaricine 7, 19-epi-scholaricine 2 mg, x ± SD
Procedure: as §1, §2, §3, §4
Group and dose: in Test group 1, the ratio of picrinine, vallesamine, scholaricine and 19-epischolaricine by weight was 25:19:20:4, and the other groups and doses thereof were as described in Example 10.
Test index: CRP in serum was used as index, and was determined by enzyme linked immunosorbent assay.

[11] = test system: WBC count and eosinophil percentage in BALF of asthma model mouse; assay: Effect on WBC count and eosinophil percentage in BALF of asthma model mouse; details: OVA-induced asthma mouse, ig 7 d, dose/kg: dexamethasone 2 mg, Test group 1 50, 2 25, picrinine 5.0, vallesamine 3.0, scholaricine 3.0, 19-epi-scholaricine 3.5 mg, x ± SD
Procedure: as §1, §5, §6, §4
Group and dose: in Test group 1, the ratio of picrinine, vallesamine, scholaricine and 19-epischolaricine by weight was 41:45:28:7, and the other groups and doses thereof were as described in Example 11.
Test index: number of white blood cells (WBCs) and number of eosinophil in bronchoalveolar lavage fluid (BALF) were used as index, and were determined by full-automatic hemocytometer.

[12] = test system: SOD in serum and BALF of asthma model mouse; assay: Effect on SOD in serum and BALF of asthma model mouse; details: ig 7 d, dose/kg: dexamethasone 2.0 mg, Test group 1 50, 2 25, picrinine 5.0, vallesamine 3.0, scholaricine 3.0, 19-epi-scholaricine 3.5 mg, x ± SD
Procedure: as §1, §5, §6, §4
Group and dose: in Test group 1, the ratio of picrinine, vallesamine, scholaricine and 19-epischolaricine by weight was 12:10:9:2, and the other groups and doses thereof were as described in Example 11.
Test index: SOD in serum and BALF was used as index, and was determined by xanthine oxidase method.

C[C@@H]1C[C@H]2[C@@H]3CCC4=CC(=O)C=C[C@]4(C)[C@@]3(F)[C@@H](O)C[C@]2(C)[C@@]1(O)C(=O)CO [dexamethasone, reference compound]
SOD homogenate ([1]; lung homogenate): 63.92 ± 5.84 U/mL | SOD Serum ([1]; serum): 86.85 ± 9.48 U/mL | IgE [2]: 3.23 ± 0.53 g μg/mL | Eotaxin [3]: 7.87 ± 0.45 pg/mL | MDA lavage fluid ([4]; BALF): 2.17 ± .17 nmol/mL | MDA Serum ([4]; serum): 10.99 ± 2.38 nmol/mL | IL-6 [5]: 22.0 ± 2.0 pg/mL | Leukocyte number [6]: 1.1 ± 0.5 ×10^5/mL | Neutrophil number [6]: 0.53 ± 0.50 ×10^5/mL | IL-4 [7]: 9.96 ± 4.03 pg/mL | IL-10 [8]: 17.45 ± 5.60 pg/mL | MDA Homogenate ([9]; lung homogenate): 6.23 ± 0.60 nmol/mL | MDA Serum ([9]; serum): 14.04 ± 3.64 nmol/mL | CRP [10]: 22.3 ± 2.0 pg/mL | Eosinophil percentage [11]: 4.32 ± 1.12 % | Number of WBCs [11]: 0.50 ± 0.17 ×10^9/L | SOD lavage fluid ([12]; BALF): 76.57 ± 12.52 U/mL | SOD Serum ([12]; serum): 74.83 ± 8.43 U/mL
